The values below are quoted from earlier work in US9192159B2, “Azoxystrobin formulations” (priority 2006, dated 2015).

Regarding `CO/C=C(/C(=O)OC)c1ccccc1Oc1cc(Oc2ccccc2C#N)ncn1` [Azoxystrobin], the Solubility in water result was “low solubility in water”.
